Data reported in US20070249548A1, “Nucleoside Analog or Salts of the Same” (GIFU UNIVERSITY, priority 2004, published 2007).
[TBDPS-acyc] = code of the source, not defined here; d = 2'-deoxy (DNA)

System: oligonucleotide made from sequence number 2
Assay: Stability of the double strand (Tm value)
Type: physicochemical
Conditions: double strand with oligonucleotide of sequence number 2; annealing buffer 10 mM sodium phosphate (pH 7.0), 1 M NaCl

| Substance | Tm value [°C] |
| --- | --- |
| Comparative Example 2: Double-stranded oligonucleotide composed of the oligonucleotides made from sequence number 3 and sequence number 2 (chain 1 AAGGAAAAGAGGAAAGA; chain 2 TCTTTCCTCTTTTCCTT; DNA, backbone not given here) | 57.7 |
| Example 10: Double-stranded oligonucleotide analog composed of the oligonucleotide analog of sequence number 1 and the oligonucleotide of sequence number 2 (chain 1 AAGGAAAAGAGGAAAGA; chain 2 TCTTTCCTCTTTTCCTT; chain 1: sugars from the 5' end d7 [TBDPS-acyc]1 d9, backbone not given here; chain 2: DNA, backbone not given here) | 49.1 |
